According to patent publication US20240092802A1, “MU-OPIOID RECEPTOR AGONISTS AND USES THEREFOR” (Kures, Inc., priority 2020, published 2024):
Where “and” joins values, the source holds several entries; their conditions need not be identical. Identical values can stand only once.

Experiments:
[1] = Pharmacokinetics and brain distribution after single intraperitoneal dose in male C57BL/6 mice; conditions: for MRT last: MRTlast
Description: For each compound, a group of twenty-four male mice were administered with a solution formulation of the drug in normal saline intraperitoneally at a dose of 10 mg/kg. Blood samples (approximately 60 μL) were collected under light isoflurane anesthesia from the retro orbital plexus at 0.08, 0.25, 0.5, 1, 2, 4, 8 and 24 hr. Plasma samples were separated by centrifugation of whole blood and stored below −70° C. until bioanalysis. Immediately after collection of blood, brain samples were collected from each mouse at 0.08, 0.25, 0.5, 1, 2, 4, 8 and 24 hr. Brain samples were homogenized using ice-cold phosphate buffer saline (pH 7.4) and homogenates were stored below −70° C. until analysis. Total homogenate volume was three times the tissue weight. All samples were processed for analysis by protein precipitation using acetonitrile (ACN) and analyzed with fit-for-purpose LC/MS/MS method (LLOQ—1.01 ng/mL in plasma and brain). Pharmacokinetic parameters were calculated using the non-compartmental analysis tool of Phoenix WinNonlin® (Version 6.3).

Mouse MOR = Mouse MOR (Mus musculus (Mouse), UniProt P42866); experiment: BRET G protein activation assay, mouse MOR in transfected HEK-293T cells; assay type: cell-based; conditions: mean ± SEM
Description: (§1) Transfection. Human or mouse MOR cDNA was transfected alongside GαoB with RLuc8 inserted at position 91 (GαoB-RLuc8), Gβ1 (β1), and Gγ2 fused to the full-length mVenus at its N terminus (mVenus γ2) into HEK-293T cells (5×10^6 cells/plate) in 10-cm dishes using PEI (Polysciences Inc.; Warrington, PA) in a 1:1 ratio diluted in Opti-MEM (Life Technologies Corp.; Grand Island, NY) to assay for G protein activation as described previously (Rives, M.-L. et al. J. Biol. Chem. 2012, 287, 27050-4; Negri, A.; Rives, M.-L.; Caspers, M. J. et al. J. Chem. Inf. Model. 2013, 53, 521-526). Cells were maintained in the Dulbecco's Modified Eagle Medium (high glucose #11965; Life Technologies) supplemented with 10% FBS (Premium Select, Atlanta Biologicals; Atlanta, GA) and 100 U/mL penicillin and 100 μg/mL streptomycin (#15140, Life Technologies). After 24 hours the media was changed, and the experiment was performed 24 hours later (48 hours after transfection).
(§2) BRET. Transfected cells were dissociated and resuspended in phosphate-buffered saline (PBS). Approximately 200,000 cells/well were added to a black-framed, white well 96-well plate (#60050; Perkin Elmer; Waltham, MA). The microplate was centrifuged and the cells were resuspended in PBS. Then 5 μM of the luciferase substrate coelenterazine H was added to each well for 5 minutes. Following coelenterazine H addition, ligands were added and the BRET signal was measured at 5 minutes on a PHERAstar FS plate reader. Quantification of the BRET signal required calculating the ratio of the light emitted by the energy acceptor, mVenus (510-540 nm), over the light emitted by the energy donor, RLuc8 (485 nm). […] Dose response curves were fit using three-parameter logistics equation in GraphPad Prism 6.

Human MOR = Human MOR (Homo sapiens (Human), UniProt P35372); experiment: BRET G protein activation assay, human MOR in transfected HEK-293T cells; assay type: cell-based; conditions: BRET G protein activation, HEK-293T; mean ± SEM; read-out: EC50 Human MOR
Description: as §1, §2

[2] = brain, i.p. 10 mg/kg, male C57BL/6 mice
[3] = i.p. 10 mg/kg, male C57BL/6 mice
[4] = male, C57BL/6, mouse, in vivo, ip, 10 mg/kg
[5] = male, C57BL/6, mouse, in vivo, ip, 10 mg/kg, brain, i.p. 10 mg/kg, male C57BL/6 mice
[6] = male, C57BL/6, mouse, in vivo, ip, 10 mg/kg, plasma, i.p. 10 mg/kg, male C57BL/6 mice

Sequence of Mouse MOR (P42866 whole entry, looked up, the tested form may be a part): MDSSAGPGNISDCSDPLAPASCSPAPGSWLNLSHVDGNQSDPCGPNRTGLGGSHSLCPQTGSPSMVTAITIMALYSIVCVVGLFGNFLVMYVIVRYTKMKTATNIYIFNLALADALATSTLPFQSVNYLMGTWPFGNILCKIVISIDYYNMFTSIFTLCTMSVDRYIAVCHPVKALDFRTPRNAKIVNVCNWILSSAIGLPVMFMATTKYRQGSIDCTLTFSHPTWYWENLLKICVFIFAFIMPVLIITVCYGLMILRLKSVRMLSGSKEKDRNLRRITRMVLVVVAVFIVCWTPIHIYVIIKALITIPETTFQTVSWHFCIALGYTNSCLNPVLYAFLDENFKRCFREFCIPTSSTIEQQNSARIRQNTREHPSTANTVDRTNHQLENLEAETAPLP
Sequence of Human MOR (P35372 whole entry): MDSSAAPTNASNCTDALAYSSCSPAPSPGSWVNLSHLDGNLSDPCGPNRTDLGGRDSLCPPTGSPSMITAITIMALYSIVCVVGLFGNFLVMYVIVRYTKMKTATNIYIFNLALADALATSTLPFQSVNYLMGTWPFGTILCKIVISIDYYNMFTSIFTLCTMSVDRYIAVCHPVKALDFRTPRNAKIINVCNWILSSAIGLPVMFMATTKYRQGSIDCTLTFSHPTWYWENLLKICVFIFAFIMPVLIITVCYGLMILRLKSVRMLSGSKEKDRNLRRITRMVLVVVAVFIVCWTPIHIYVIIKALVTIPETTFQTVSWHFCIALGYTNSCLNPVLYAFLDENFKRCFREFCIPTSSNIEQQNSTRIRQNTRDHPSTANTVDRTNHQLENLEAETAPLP

SMILES | EC50 (Mouse MOR) [µM] | EC50 (Human MOR) [µM] | further results
COCCCNC1c2ccccc2N(C)S(=O)(=O)c2cc(Cl)ccc21 (stereo not drawn) [compound 23, 3-Chloro-11-((3-methoxypropyl)amino)-6-methyl-6,11-dihydrodibenzo [c,f][1,2]thiazepine 5,5-dioxide] |  |  | AUClast [1, 2]: 335.03 ng·h/g; CL [1, 2]: 260.44 mL/min/kg; half-life compared with tianeptine [1, 3]: much longer half-life; systemic exposure (AUC) compared with tianeptine [1, 3]: higher systemic exposure (AUC); AUC(0-t) [1, 4]: 3060 ng·h/mL; Cmax [1, 4]: 1540 ng/mL and 378 ng/g; MRT last [1, 5]: 1.27 h; MRT last [1, 6]: 2.29 h; half-life ([1]; male, C57BL/6, mouse, in vivo, ip, 10 mg/kg, T1/2, brain, i.p. 10 mg/kg, male C57BL/6 mice): 5.12 h; half-life ([1]; male, C57BL/6, mouse, in vivo, ip, 10 mg/kg, T1/2, plasma, i.p. 10 mg/kg, male C57BL/6 mice): 3.93 h; Tmax [1, 5]: 0.08 h; Tmax [1, 6]: 0.25 h; CL ([1]; plasma, i.p. 10 mg/kg, male C57BL/6 mice): 44.27 mL/min/kg
CCOC(=O)CCCCNC1c2ccccc2N(C)S(=O)(=O)c2cc(Cl)ccc21 (stereo not drawn) [compound 17, Ethyl 5-((3-chloro-6-methyl-5,5-dioxido-6,11-dihydrodibenzo[c,f][1,2]thiazepin-11-yl)amino)pentanoate] | < 10 | < 10 | 
CCCNC1c2ccccc2N(C)S(=O)(=O)c2cc(Cl)ccc21 (stereo not drawn) [compound 21, 3-Chloro-6-methyl-11-(propylamino)-6,11-dihydrodibenzo [c,f][1,2]thiazepine 5,5-dioxide] | < 10 | < 10 | 
COCCCNC1c2ccccc2N(C)S(=O)(=O)c2cc(SC)ccc21 (stereo not drawn) [compound 44, 11-((3-Methoxypropyl)amino)-6-methyl-3-(methylthio)-6,11-dihydrodibenzo[c,f][1,2]thiazepine 5,5-dioxide] | < 10 | < 10 | 
CC(C)NC1c2ccccc2N(C)S(=O)(=O)c2cc(Cl)ccc21 (stereo not drawn) [compound 22, 3-Chloro-11-(isopropylamino)-6-methyl-6,11-dihydrodibenzo [c,f][1,2]thiazepine 5,5-dioxide] | < 10 | < 10 | 
CCCCCNC1c2ccccc2N(C)S(=O)(=O)c2ccccc21 (stereo not drawn) [compound 8, 6-Methyl-11-(pentylamino)-6,11-dihydrodibenzo[c,f][1,2]thiazepine 5,5-dioxide] | < 10 | < 10 | 
CCCCCNC1c2ccccc2N(C)S(=O)(=O)c2cc(Cl)ccc21 (stereo not drawn) [compound 19, 3-Chloro-6-methyl-11-(pentylamino)-6,11-dihydrodibenzo [c,f][1,2]thiazepine 5,5-dioxide] | < 10 | < 10 | 
CNC1c2ccccc2N(C)S(=O)(=O)c2cc(Cl)ccc21 (stereo not drawn) [compound 20, 3-Chloro-6-methyl-11-(methylamino)-6,11-dihydrodibenzo [c,f][1,2]thiazepine 5,5-dioxide] | < 10 | < 10 | 
COCCCNC1c2ccccc2N(C)S(=O)(=O)c2cc(SC(C)C)ccc21 (stereo not drawn) [compound 63, 3-(Isopropylthio)-11-((3-methoxypropyl)amino)-6-methyl-6,11-dihydrodibenzo[c,f][1,2]thiazepine 5,5-dioxide] |  | < 10 | 
COCCOCCNC1c2ccccc2N(C)S(=O)(=O)c2cc(Cl)ccc21 (stereo not drawn) [compound 36, 3-Chloro-11-((2-(2-methoxyethoxy)ethyl)amino)-6-methyl-6,11-dihydrodibenzo[c,f][1,2]thiazepine 5,5-dioxide] |  | < 10 | 
CN1c2ccccc2C(NCCCCC(=O)O)c2ccc(Cl)cc2S1(=O)=O (stereo not drawn) [compound 18, 5-((3-Chloro-6-methyl-5,5-dioxido-6,11-dihydrodibenzo[c,f][1,2]thiazepin-11-yl)amino)pentanoic acid] | < 10 | < 10 | 
COCC(C)CNC1c2ccccc2N(C)S(=O)(=O)c2cc(Cl)ccc21 (stereo not drawn) [compound 68, 3-Chloro-11-((3-methoxy-2-methylpropyl)amino)-6-methyl-6,11-dihydrodibenzo[c,f][1,2]thiazepine 5,5-dioxide] |  | < 10 | 
COCCCNC1c2ccccc2N(C)S(=O)(=O)c2cc(Oc3ccccc3)ccc21 (stereo not drawn) [compound 29, 11-((3-Methoxypropyl)amino)-6-methyl-3-phenoxy-6,11-dihydrodibenzo [c,f][1,2]thiazepine 5,5-dioxide] |  | < 10 | 
COCCCNC1c2ccccc2N(C)S(=O)(=O)c2cc(OCc3ccccc3)ccc21 (stereo not drawn) [compound 75, 3-(Benzyloxy)-11-((3-methoxypropyl)amino)-6-methyl-6,11-dihydrodibenzo[c,f][1,2]thiazepine 5,5-dioxide] |  | > 20 | 
CCOC(=O)CCCCCCNC1c2ccc(Br)cc2S(=O)(=O)N(C)c2ccsc21 (stereo not drawn) [compound 74, Ethyl 7-((7-bromo-4-methyl-5,5-dioxido-4, 10-dihydrobenzo[f]thieno[3,2-c][1,2]thiazepin-10-yl)amino)heptanoate] |  | < 10 | 
CCOCCCNC1c2ccc(Cl)cc2S(=O)(=O)N(C)c2ccsc21 (stereo not drawn) [compound 78, 7-Chloro-10-((3-ethoxypropyl)amino)-4-methyl-4, 10-dihydrobenzo[f]thieno[3,2-c][1,2]thiazepine 5,5-dioxide] |  | < 10 | 
